Data taken from patent US4307108A, “Method for lowering sorbitol levels using spiro-imides” (Pfizer Inc., priority 1979, dated 1981).
Counter-ions that a name gives are not always drawn.

Tests used:
[1] = system: sorbitol accumulation in the sciatic nerve of streptozotocinized (i.e., diabetic) rats; assay: reduction/inhibition of sorbitol accumulation in the sciatic nerve of acutely streptozotocinized (diabetic) rats; assay type: in vivo; conditions: for Percent Inhibition (%): oral, 4, 8 and 24 hours after streptozotocin, sorbitol in sciatic nerve measured 27 hours after induction of diabetes, vs. untreated animal
Protocol: The activity of the compounds of the present invention, as agents for the control of chronic diabetic complications, is determined by their ability to successfully pass one or more of the following standard biological and/or pharmacological tests, viz., (1) measuring their ability to reduce or inhibit sorbitol accumulation in the sciatic nerve of acutely streptozotocinized (i.e., diabetic) rats; (2) measuring their ability to reverse already-elevated sorbitol levels in the sciatic nerve and lens of chronic streptozotocin-induced diabetic rats; (3) measuring their ability to prevent or inhibit galactitol formation in the lens of acutely galactosemic rats, and (4) measuring their ability to delay cataract formation and reduce the severity of lens opacities in chronic galactosemic rats.
The following spiro-imide compounds of Preparation C and Examples 1-5, respectively, were tested for their ability to reduce or inhibit sorbitol accumulation in the sciatic nerve of streptozotocinized (i.e., diabetic) rats essentially by the procedure described in U.S. Pat. No. 3,821,383. In the present study, the amount of sorbitol accumulation in the sciatic nerves was measured 27 hours after induction of diabetes. The compounds were administered orally at the dose levels indicated 4, 8 and 24 hours following the administration of streptozotocin. The results obtained in this manner are presented below in terms of percent inhibition (%) afforded by the test compound as compared to the case where no compound was administered (i.e., the untreated animal where sorbitol levels normally rise from approximately […]. tissue to as high as […]. tissue in the 27-hour test period): […]

[2] = toxic side effects in diabetic rats on oral administration; assay type: in vivo; conditions: dose level as low as 2.5 mg./kg.
From the text: As previously indicated, the spiro-imide compounds of this invention reduce lens sorbitol levels in diabetic subjects. […] The other compounds of this invention also cause similar results. Furthermore, the herein described compounds can be administered by either the oral or parenteral routes of administration without causing any significant untoward pharmacological side reactions in the subjects to whom they are so administered. These compounds are ordinarily administered in dosages ranging from about 0.25 mg. to about 25 mg. per kg. of body weight per day, although variations will necessarily occur depending upon the actual condition of the subject being treated and the particular route of administration chosen.

[3] = water solubility of salt; assay type: physicochemical; conditions: sodium salt, amorphous powder, freeze-dried

O=C1CCC2(CCCc3ccccc32)C(=O)N1 (stereo not drawn) [Product of Ex. 5, 3,4-dihydro-spiro-[2H-naphthalene-1,3'-piperidine]-2',6'-dione]
Percent Inhibition (%) ([1]; 25 mg./kg.): 23%

O=C1CC2(CCCc3sccc32)C(=O)N1 (stereo not drawn) [Product of Ex. 4, 6,7-dihydro-spiro-[5H-benzo(b)thiophene-4,3'-pyrrolidine]-2',5'-dione]
Percent Inhibition (%) ([1]; 25 mg./kg.): 51%

O=C1CC2(Cc3ccccc3C2)C(=O)N1 [Product of Ex. 3, 2,3-dihydro-spiro-[1H-indene-2,3'-pyrrolidine]-2',5'-dione]
Percent Inhibition (%) ([1]; 25 mg./kg.): 33%

O=C1CC2(CCOc3ccc(Cl)cc32)C(=O)N1 (stereo not drawn) [Product of Ex. 2, 6-chloro-2,3-dihydro-spiro-[4H-1-benzopyran-4,3'-pyrrolidine]-2',5'-dione]
Percent Inhibition (%) ([1]; 5.0 mg./kg.): 13%

O=C1CC2(CCc3ccccc32)C(=O)N1 (stereo not drawn) [Product of Ex. 1, 2,3-dihydro-spiro-[1H-indene-1,3'-pyrrolidine]-2',5'-dione]
substantial signs of toxic side effects [2]: without showing any substantial signs of toxic side effects | Percent Inhibition (%) ([1]; 2.5 mg./kg.): 28% | inhibit the formation of sorbitol levels in the sciatic nerve of diabetic rats ([1]; oral, dose level as low as 2.5 mg./kg., result in words): to a significant degree

O=C1CC2(CCCc3ccccc32)C(=O)N1 (stereo not drawn) [Product of Prep. C, 3,4-dihydro-spiro-[2H-naphthalene-1,3'-pyrrolidine]-2',5'-dione]
Percent Inhibition (%) ([1]; 5.0 mg./kg.): 46%

O=C1CC2(CCc3ccccc32)C(=O)N1 (stereo not drawn) [sodium salt of 3,4-dihydro-spiro-[1H-indene-1,3'-pyrrolidino]-2',5'-dione]
solubility in water [3]: freely-soluble in water
